Assay results: US8242159B2, “1,3-dihydro-5-isobenzofurancarbonitrile derivatives and pharmaceutical composition thereof for the treatment of premature ejaculation” (Dong-A Pharmaceutical. Co., Ltd, priority 2007, dated 2012)

Tested on: Male Wistar rats
Assay: p-PCA-induced ejaculation in anesthetized rats (ejaculation-delaying effect)
Assay type: in vivo, rat
Settings: for Ratio: Number of responding animals/total animal number: 50 mg/kg oral in 1% HPMC, p-PCA 5 mg/kg i.p. 80 min later, observed 30 min; for Latency: Time to display the ejaculatory response: 50 mg/kg oral, p-PCA 5 mg/kg i.p., mean ± standard deviation of responding rats
Method: The compounds prepared in the above examples were evaluated to determine whether they have an effect of delaying ejaculation. The evaluation was carried out using an animal model according to a method described in Yonezawa et al., Life Sci. 2000, 67(25) p 3031-9. Male Wistar rats weighing 240-260 g were used. Each compound was suspended in 1% HPMC, and then administered orally to each animal. After 60 min, the animals were anesthetized and fixed. 20 min later, para-chloroamphetamine (p-PCA) was intraperitoneally administered in a dose of 5 mg/kg in order to induce ejaculation. […] An ejaculatory response was considered to be elicited when rhythmic contraction of bulbocavernosus muscles and semen discharge occurs. Six or more animals were used for each compound. A Fisher's […] test was performed for the comparison of the proportion of responding rats (ejaculated rats) to determine significance of difference between a treatment group and a vehicle control. The time to reach ejaculation was expressed as mean±standard deviation.
Each test compound was administered at a dose of 50 mg/kg. Ejaculation was elicited in all seven animals of a control group.

| SMILES | Ratio: Number of responding animals/total animal number | Latency: Time to display the ejaculatory response |
| --- | --- | --- |
| COc1ccc(C2(CCCN(C)C)OCc3cc(C#N)ccc32)cc1 (stereo not shown) [Ex. 1, 1-(4-methoxyphenyl)-1-{3-(dimethylamino)propyl}-1,3-dihydro-5-isobenzofurancarbonitrile] | 5/9 | 1024 ± 256 s |
| COc1ccc(C2(CCCN(C)C)OCc3cc(C#N)ccc32)cc1.Cl (stereo not shown) [Ex. 3, 1-{3-(dimethylamino)propyl}-1-(4-methoxyphenyl)-1,3-dihydro-5-isobenzofurancarbonitrile hydrochloride] | 1/6 | 1234 s |
| COc1ccc(C2(CCCn3ccnc3)OCc3cc(C#N)ccc32)cc1 (stereo not shown) [Ex. 4, 1-{3-(imidazole-1-yl)propyl}-1-(4-methoxyphenyl)-1,3-dihydro-5-isobenzofurancarbonitrile] | 4/9 | 1300 ± 124 s |
| COc1ccc(C2(CCCn3ccnc3)OCc3cc(C#N)ccc32)cc1.Cl (stereo not shown) [Ex. 5, 1-{13-(imidazole-1-yl)propyl}-1-(4-methoxyphenyl)-1,3-dihydro-5-isobenzofurancarbonitrile hydrochloride] | 3/7 | 986 ± 342 s |
| COc1ccc(C2(CCn3ccnc3)OCc3cc(C#N)ccc32)cc1 (stereo not shown) [Ex. 6, 1-{2-(imidazole-1-yl)ethyl}-1-(4-methoxyphenyl)-1,3-dihydro-5-isobenzofurancarbonitrile] | 4/7 | 889 ± 284 s |
| COc1ccc(C2(CCn3ccnc3)OCc3cc(C#N)ccc32)cc1.Cl (stereo not shown) [Ex. 7, 1-{2-(imidazole-1-yl)ethyl}-1-(4-methoxyphenyl)-1,3-dihydro-5-isobenzofurancarbonitrile hydrochloride] | 5/9 | 963 ± 304 s |
| COc1ccc(C2(CCCn3cccn3)OCc3cc(C#N)ccc32)cc1 (stereo not shown) [Ex. 8, 1-(4-methoxyphenyl)-1-{3-(pyrazole-1-yl)propyl}-1,3-dihydro-5-isobenzofurancarbonitrile] | 4/9 | 1230 ± 421 s |
| COc1ccc(C2(CCCn3cccn3)OCc3cc(C#N)ccc32)cc1.Cl (stereo not shown) [Ex. 9, 1-(4-methoxyphenyl)-1-{3-(pyrazole-1-yl)propyl}-1,3-dihydro-5-isobenzofurancarbonitrile hydrochloride] | 4/7 | 950 ± 245 s |
| COc1ccc(C2(CCn3cccn3)OCc3cc(C#N)ccc32)cc1 (stereo not shown) [Ex. 10, 1-(4-methoxyphenyl)-1-{2-(pyrazole-1-yl)ethyl}-1,3-dihydro-5-isobenzofurancarbonitrile] | 4/9 | 889 ± 360 s |
| COc1ccc(C2(CCn3cccn3)OCc3cc(C#N)ccc32)cc1.Cl (stereo not shown) [Ex. 11, 1-(4-methoxyphenyl)-1-{2-(pyrazole-1-yl)ethyl}-1,3-dihydro-5-isobenzofurancarbonitrile hydrochloride] | 3/7 | 974 ± 289 s |
| CN(C)CCCC1(c2ccccc2)OCc2cc(C#N)ccc21 (stereo not shown) [Ex. 12, 1-{3-(dimethylamino)propyl}-1-phenyl-1,3-dihydro-5-isobenzofurancarbonitrile] | 4/9 | 1025 ± 189 s |
| CN(C)CCCC1(c2ccccc2)OCc2cc(C#N)ccc21.Cl (stereo not shown) [Ex. 13, 1-{3-(dimethylamino)propyl}-1-phenyl-1,3-dihydro-5-isobenzofurancarbonitrile hydrochloride] | 1/6 | 327 s |
| CN(C)CCC1(c2ccccc2)OCc2cc(C#N)ccc21 (stereo not shown) [Ex. 14, 1-{2-(dimethylamino)ethyl}-1-phenyl-1,3-dihydro-5-isobenzofurancarbonitrile] | 3/7 | 1032 ± 451 s |
| CN(C)CCC1(c2ccccc2)OCc2cc(C#N)ccc21.Cl (stereo not shown) [Ex. 15, 1-{2-(dimethylamino)ethyl}-1-phenyl-1,3-dihydro-5-isobenzofurancarbonitrile hydrochloride] | 4/9 | 1345 ± 510 s |
| N#Cc1ccc2c(c1)COC2(CCCn1ccnc1)c1ccccc1 (stereo not shown) [Ex. 16, 1-{3-(imidazole-1-yl)propyl}-1-phenyl-1,3-dihydro-5-isobenzofurancarbonitrile] | 4/9 | 856 ± 365 s |
| Cl.N#Cc1ccc2c(c1)COC2(CCCn1ccnc1)c1ccccc1 (stereo not shown) [Ex. 17, 1-{3-(imidazole-1-yl)propyl}-1-phenyl-1,3-dihydro-5-isobenzofurancarbonitrile hydrochloride] | 3/6 | 949 ± 330 s |
| N#Cc1ccc2c(c1)COC2(CCn1ccnc1)c1ccccc1 (stereo not shown) [Ex. 18, 1-{2-(imidazole-1-yl)ethyl}-1-phenyl-1,3-dihydro-5-isobenzofurancarbonitrile] | 3/7 | 691 ± 361 s |
| Cl.N#Cc1ccc2c(c1)COC2(CCn1ccnc1)c1ccccc1 (stereo not shown) [Ex. 19, 1-{2-(imidazole-1-yl)ethyl}-1-phenyl-1,3-dihydro-5-isobenzofurancarbonitrile hydrochloride] | 5/9 | 954 ± 275 s |
| N#Cc1ccc2c(c1)COC2(CCn1cccn1)c1ccccc1 (stereo not shown) [Ex. 20, 1-phenyl-1-{2-(pyrazole-1-yl)ethyl}-1,3-dihydro-5-isobenzofurancarbonitrile] | 3/7 | 978 ± 378 s |
| Cl.N#Cc1ccc2c(c1)COC2(CCn1cccn1)c1ccccc1 (stereo not shown) [Ex. 21, 1-phenyl-1-{2-(pyrazole-1-yl)ethyl}-1,3-dihydro-5-isobenzofurancarbonitrile hydrochloride] | 4/7 | 799 ± 387 s |
| Cc1ccc(C2(CCCN(C)C)OCc3cc(C#N)ccc32)cc1 (stereo not shown) [Ex. 22, 1-{3-(dimethylamino)propyl}-1-(4-tolyl)-1,3-dihydro-5-isobenzofurancarbonitrile] | 3/7 | 830 ± 287 s |
| Cc1ccc(C2(CCCN(C)C)OCc3cc(C#N)ccc32)cc1.Cl (stereo not shown) [Ex. 23, 1-{3-(dimethylamino)propyl}-1-(4-tolyl)-1,3-dihydro-5-isobenzofurancarbonitrile hydrochloride] | 4/7 | 967 ± 274 s |
| Cc1ccc(C2(CCN(C)C)OCc3cc(C#N)ccc32)cc1 (stereo not shown) [Ex. 24, 1-{2-(dimethylamino)ethyl}-1-(4-tolyl)-1,3-dihydro-5-isobenzofurancarbonitrile] | 3/7 | 1021 ± 367 s |
